≈ marks a conversion by molar mass, not a printed value.
Tests used:
HeLa = test: Cytotoxicity against human HeLa cells after 96 hrs by MTT assay; assay type: functional, cell-based
P388 = test: Cytotoxicity against mouse P388 cells after 96 hrs by MTT assay; assay type: functional, cell-based; conditions: P388, 96 h

| SMILES | IC50 (HeLa) [µg/mL] | IC50 (P388) [µg/mL] |
| --- | --- | --- |
| CCCCCCCCCCCCCCCC/C=C(\Cl)CC/C=C\CCCC[C@@H]1OC[C@H](N)[C@@H]1O [PENASIN B] | 10 (≈ 20.1 µM) | 50 (≈ 100 µM) |
| CCCCCCCCCCCCCCCC/C=C\CC/C=C\CCCC[C@@H]1OC[C@H](N)[C@@H]1O [PENASIN] | 10 (≈ 21.6 µM) | 50 (≈ 108 µM) |

— ChEMBL document CHEMBL1641389, “Penasins A-E, long-chain cytotoxic sphingoid bases, from a marine sponge Penares sp” (J Nat Prod, 2010)
